Laboratory results: paper PMC12005229, “Final results from the phase Ia/Ib study of the novel bromodomain and extra-terminal domain inhibitor, BI 894999, in patients with advanced solid tumors or diffuse large B-cell lymphoma” (ESMO Open, 2025)
Values joined by “and” are separate entries in the source; they are usually repeats but may differ in a detail not shown here. Equal values may be shown once. “Also recorded” adds a separate entry of the source. Read-outs that look alike come from different tables or passages of the source.

Assays:
[1] = system: BRD4-BD2; set-up: method as in PMID 35444289; conditions: read-out: IC50, inhibition of interaction of acetylated histone H4-derived peptide with BRD4-BD2; cited from earlier work
[2] = system: patients with solid tumors; set-up: method as in PMID 37556913; conditions: cited from earlier work; for maximum tolerated dose (MTD): solid tumors
[3] = system: patients with advanced solid tumors (SCLC, CRC, mCRPC, NUT carcinoma); assay: phase Ib expansion: DLTs, adverse events, exposure; conditions: for DLT / DLT grade / DLT outcome / DLT duration: individual patient events; for patients with DLTs: phase Ib schedule B
Text: The primary endpoint for the phase Ib expansion was the number of patients who experienced DLTs during the study treatment period.
For fatigue at baseline, there had to be an increase of two or more grades.

[4] = phase Ib CRC, schedule B 2.5 mg
[5] = phase Ib NUT carcinoma, schedule B 2.5 mg
[6] = phase Ib NUT carcinoma, schedule C 6.0/3.0 mg
[7] = phase Ib SCLC, schedule B 2.5 mg
[8] = phase Ib mCRPC, schedule B 2.5 mg
[9] = phase Ib, NUT carcinoma total n = 42

CNc1nc(-c2nc3ccc(N4CCN(C)CC4)cc3n2Cc2ccccc2)cn2c(C)nnc12 [BI 894999]
IC50 [1]: 41 ± 30 nM
disease control (CR, PR or SD) ([2]; initial phase Ia, investigator's assessment): 26.0%
best response PR ([2]; initial phase Ia): 3.9%
patients with grade ≥3 DLTs ([2]; initial phase Ia): 22 of 77
maximum tolerated dose (MTD) ([2]; schedule A (days 1-21 of 3-week cycle)): 1.5 mg
maximum tolerated dose (MTD) ([2]; schedule B (days 1-14 of 3-week cycle)): 2.5 mg
most frequent DLT ([3]; phase Ia DLBCL extension and phase Ib): grade 4 thrombocytopenia
discontinuation because of DLT ([3]; phase Ib): 3.8%
discontinuation because of other AEs ([3]; phase Ib): 10.1%
discontinuation because of progressive disease ([3]; phase Ib): 78.5%
dose continuations due to AEs ([3]; phase Ib): 13.9%
dose reductions due to AEs ([3]; phase Ib): 16.5%
median time to first dose reduction ([3]; phase Ib): 35.5 days
patients who died because of AEs ([3]; phase Ib): 8.9%
patients who required a dose reduction ([3]; phase Ib): 20.3%
patients with AEs of any grade ([3]; phase Ib): 100%
patients with treatment-related AEs ([3]; phase Ib): 83.5%
thrombocytopenia leading to dose discontinuation ([3]; phase Ib): 2.5%
DLT [3, 4]: Dermatitis acneiform; also recorded: Thrombocytopenia
DLT grade [3, 4]: 3 and 4
DLT outcome [3, 4]: Not recovered
DLT [3, 5]: Decreased platelet count
DLT duration [3, 5]: 6 days
DLT grade [3, 5]: 4
DLT outcome [3, 5]: Not recovered
DLT [3, 6]: Pleural effusion; also recorded: Fatigue; also recorded: Diarrhea; also recorded: Decreased platelet count
DLT duration [3, 6]: 3 days and 16 days and 36 days
DLT grade [3, 6]: 3 and 4
DLT outcome [3, 6]: Recovered; also recorded: Not recovered
DLT [3, 7]: Laryngeal inflammation; also recorded: Thrombocytopenia; also recorded: Decreased appetite; also recorded: Fatigue; also recorded: Troponin T increased
DLT duration [3, 7]: 4 days and 9 days and 11 days and 6 days
DLT grade [3, 7]: 3 and 4
DLT outcome [3, 7]: Not recovered; also recorded: Recovered
DLT [3, 8]: Thrombocytopenia; also recorded: Decreased platelet count; also recorded: Troponin T increased; also recorded: Stomatitis; also recorded: Nausea; also recorded: Decreased appetite; also recorded: Hypophosphatemia
DLT duration [3, 8]: 40 days and 4 days and 3 days and 8 days and 12 days and 22 days
DLT grade [3, 8]: 4 and 3
DLT outcome [3, 8]: Not recovered; also recorded: Recovered
patients with DLTs ([3]; CRC): 2 n
patients with DLTs ([3]; NUT carcinoma): 2 n
patients with DLTs ([3]; SCLC): 3 n
patients with DLTs ([3]; mCRPC): 7 n
ALT increase, treatment-related AE, any grade ([3]; phase Ib, CRC n = 14): 0 n (%)
ALT increase, treatment-related AE, grade ≥3 ([3]; phase Ib, CRC n = 14): 0 n (%)
Anemia, treatment-related AE, any grade ([3]; phase Ib, CRC n = 14): 3 (21.4) n (%)
Anemia, treatment-related AE, grade ≥3 ([3]; phase Ib, CRC n = 14): 2 (14.3) n (%)
Decreased appetite, treatment-related AE, any grade ([3]; phase Ib, CRC n = 14): 5 (35.7) n (%)
Decreased appetite, treatment-related AE, grade ≥3 ([3]; phase Ib, CRC n = 14): 0 n (%)
Decreased platelet count, treatment-related AE, any grade ([3]; phase Ib, CRC n = 14): 1 (7.1) n (%)
Decreased platelet count, treatment-related AE, grade ≥3 ([3]; phase Ib, CRC n = 14): 1 (7.1) n (%)
Diarrhea, treatment-related AE, any grade ([3]; phase Ib, CRC n = 14): 6 (42.9) n (%)
Diarrhea, treatment-related AE, grade ≥3 ([3]; phase Ib, CRC n = 14): 2 (14.3) n (%)
Dysgeusia, treatment-related AE, any grade ([3]; phase Ib, CRC n = 14): 3 (21.4) n (%)
Dysgeusia, treatment-related AE, grade ≥3 ([3]; phase Ib, CRC n = 14): 0 n (%)
Epistaxis, treatment-related AE, any grade ([3]; phase Ib, CRC n = 14): 1 (7.1) n (%)
Epistaxis, treatment-related AE, grade ≥3 ([3]; phase Ib, CRC n = 14): 0 n (%)
Fatigue, treatment-related AE, any grade ([3]; phase Ib, CRC n = 14): 4 (28.6) n (%)
Fatigue, treatment-related AE, grade ≥3 ([3]; phase Ib, CRC n = 14): 0 n (%)
Nausea, treatment-related AE, any grade ([3]; phase Ib, CRC n = 14): 3 (21.4) n (%)
Nausea, treatment-related AE, grade ≥3 ([3]; phase Ib, CRC n = 14): 0 n (%)
Number of patients with treatment-related AEs ([3]; phase Ib, CRC n = 14): 12 (85.7) n (%)
Thrombocytopenia, treatment-related AE, any grade ([3]; phase Ib, CRC n = 14): 5 (35.7) n (%)
Thrombocytopenia, treatment-related AE, grade ≥3 ([3]; phase Ib, CRC n = 14): 3 (21.4) n (%)
Vomiting, treatment-related AE, any grade ([3]; phase Ib, CRC n = 14): 3 (21.4) n (%)
Vomiting, treatment-related AE, grade ≥3 ([3]; phase Ib, CRC n = 14): 2 (14.3) n (%)
Weight decrease, treatment-related AE, any grade ([3]; phase Ib, CRC n = 14): 1 (7.1) n (%)
Weight decrease, treatment-related AE, grade ≥3 ([3]; phase Ib, CRC n = 14): 0 n (%)
ALT increase, treatment-related AE, any grade [3, 9]: 5 (11.9) n (%)
ALT increase, treatment-related AE, grade ≥3 [3, 9]: 0 n (%)
Anemia, treatment-related AE, any grade [3, 9]: 11 (26.2) n (%)
Anemia, treatment-related AE, grade ≥3 [3, 9]: 6 (14.3) n (%)
Decreased appetite, treatment-related AE, any grade [3, 9]: 1 (2.4) n (%)
Decreased appetite, treatment-related AE, grade ≥3 [3, 9]: 0 n (%)
Decreased platelet count, treatment-related AE, any grade [3, 9]: 15 (35.7) n (%)
Decreased platelet count, treatment-related AE, grade ≥3 [3, 9]: 7 (16.7) n (%)
Diarrhea, treatment-related AE, any grade [3, 9]: 8 (19.0) n (%)
Diarrhea, treatment-related AE, grade ≥3 [3, 9]: 1 (2.4) n (%)
Dysgeusia, treatment-related AE, any grade [3, 9]: 5 (11.9) n (%)
Dysgeusia, treatment-related AE, grade ≥3 [3, 9]: 0 n (%)
Epistaxis, treatment-related AE, any grade [3, 9]: 1 (2.4) n (%)
Epistaxis, treatment-related AE, grade ≥3 [3, 9]: 0 n (%)
Fatigue, treatment-related AE, any grade [3, 9]: 10 (23.8) n (%)
Fatigue, treatment-related AE, grade ≥3 [3, 9]: 4 (9.5) n (%)
Nausea, treatment-related AE, any grade [3, 9]: 2 (4.8) n (%)
Nausea, treatment-related AE, grade ≥3 [3, 9]: 0 n (%)
